Counter-ions that a name gives are not always drawn. Where no end group is shown, it is not given here.
Experiments:
[1] = system: Recombinant neuraminidase of Influenza A virus (A/Aichi/2/1968, H3N2); format: biochemical
HA from Aichi H3N2 = biological target: T1, HA from Aichi H3N2 (Influenza A virus, UniProt P03437); assay: biochemical; format: binding, Influenza A/Aichi/2/68 H3N2
T1 construct: purchased Sino Biological 11707-V08H

[2] = system: Aichi H3N2 binding to fetuin; assay: SPR inhibition of virus binding to immobilized fetuin; parameters: species or system Influenza A/Aichi/2/68 H3N2; settings: Aichi H3N2 binding to fetuin-immobilized SPR surface, virus preincubated with inhibitor 37°C at least 15 min, four parameter logistic fit, mean ± SEM n≥2
Protocol: Measurements were performed on a Biacore™ T200 (GE-Healthcare Bio-Sciences AB) using CM5 chips, and running buffer HBSP (10 mM Hepes, 150 mM NaCl, 0.05% Tween 20, pH 7.4) at 25°C. Peptides and proteins were immobilized via amine coupling with EDC/NHS at a flow rate of 10 μl min^-1, according to the manufacturer’s instructions (GE Healthcare). Optimum preconcentration was evaluated before, using acetate and phosphate buffers (10 mM) of pH 4 to 7, and ligand concentrations of 10 μg ml^-1. For the immobilization of biotinylated sialyllactose (Lectinity), neutravidin (Thermo Fisher Scientific) (100 μg ml^-1) was immobilized by amine coupling at pH 5.5 enabling high ligand density. Biotinylated sialyllactose was then injected at a concentration of 10 μg ml^-1 in HBSP for 3 min.
A constant concentration of 50 or 100 μg ml^-1 Aichi H3N2 virus was used as analyte, while the concentration of the inhibitors was varied. The suspensions of virus and inhibitor were mixed and subsequently incubated on a Thriller® thermoshaker at 500 rpm and 37°C for at least 15 min to reach equilibrium before injection on the SPR surface. The inhibitors used were peptides or α-2,3’- and α-2,6’-sialyllactose (Carbosynth). […] Inhibition was calculated against the mean value of at least five binding events with the virus alone, using the sigmoidal four parameter logistic fit (Origin).

Aichi H3N2 virus = format: binding, Influenza A/Aichi/2/68 H3N2 X31; settings: for Virus binding on peptide-modified surfaces: pH 7.4
[3] = due to its amphiphilic character; cited from earlier work
Aichi H3N2 = format: cell-based, Influenza A/Aichi/2/68 H3N2
[4] = biological target: hemagglutinin (HA) of low pathogenic influenza A/Mute Swan/Rostock/R901/2006 H7N1 K3141, on virus particles (influenza A virus A/Mute Swan/Rostock/R901/2006 H7N1); assay: SPR
[5] = biological target: hemagglutinin (HA) of low pathogenic influenza A/Mute Swan/Rostock/R901/2006 H7N1 K3141, on virus particles (influenza A virus A/Mute Swan/Rostock/R901/2006 H7N1)

For `CC(=O)N[C@H]1[C@H]([C@H](O)[C@H](O)CO)OC(C(=O)O)=C[C@@H]1O` [DANA, N-acetyl-2,3-dehydro-2-deoxy-neuraminic acid disodium salt], the IC50 [1] was 2.2 ± 0.3 µM.

In the case of ARDFYDYDVFYYAMD-NH2 [PeB], the Kd (HA from Aichi H3N2) is reported as 56.8 µM, the IC50 [2] is reported as 75 ± 13 µM and the IC50 ([2]; listed as PeB^GF) is reported as 13 ± 3 µM.

For LGVIWAGGNTNY [PeC], the “Minimum detection level (lowest virus concentration showing binding 3 times above the SPR response of a buffer control)” value (Aichi H3N2 virus) was 6.25 μg Aichi H3N2 virus protein ml^-1 and the “Virus binding on peptide-modified surfaces” value (Aichi H3N2 virus) was “Significant virus binding”.

In the case of RRKKAAVALLPAVLLALLAP [EB], the Micelle formation [3] is given as “forms micelles” and the “fold lower Ki(HAI) as compared to PeB^GF” value (Aichi H3N2) is given as 20 fold.

With SGFLLISNGVHWV-NH2 [PeA] the “Virus binding on peptide-modified surfaces” value (Aichi H3N2 virus) was “not”.

ARDFYGYDVFFYAMD-NH2 [PeB^GF (…-amide)] showed an IC50 [4] of 30 µM and an IC50 of microneutralization of Rostock H7N1 on MDCK II cells [5] of 96 µM.

ARDFYDYDVFYYAMD-NH2 [PeB (…-amide)] showed an IC50 [4] of 40 µM and an IC50 of microneutralization of Rostock H7N1 on MDCK II cells [5] of 177 µM.
